Measured values reported in patent US20150105252A1, “SUBSTITUTED PYRAZOLES AS HERBICIDES” (E I DU PONT DE NEMOURS AND COMPANY, priority 2013, published 2015).

Tests used:
Test in all cases: Test C postemergence
kochia = assay type: in vivo, Kochia scoparia
Procedure, shortened: (§1)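 Scores of 0 (no effect) to 100 (complete control) were assigned by eye after 13–15 days, comparing treated pots with controls. Soil-applied (preemergence) treatments went onto seeds in loam and sand; foliar (postemergence) treatments onto 1- to 4-leaf plants in peat medium.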

crabgrass, large = assay type: in vivo, Digitaria sanguinalis
Procedure, shortened: as §1

chickweed = assay type: in vivo, Stellaria media
Procedure, shortened: as §1

morningglory = assay type: in vivo, Ipomoea coccinea
Procedure, shortened: as §1

oilseed rape = assay type: in vivo, Brassica napus
Procedure, shortened: as §1

velvetleaf = assay type: in vivo, Abutilon theophrasti
Procedure, shortened: as §1

waterhemp = assay type: in vivo, Amaranthus rudis
Procedure, shortened: as §1

pigweed = assay type: in vivo, Amaranthus retroflexus
Procedure, shortened: as §1

blackgrass = assay type: in vivo, Alopecurus myosuroides
Procedure, shortened: as §1

corn = assay type: in vivo, Zea mays
Procedure, shortened: as §1

ragweed = assay type: in vivo, Ambrosia elation
Procedure, shortened: as §1

soybean = assay type: in vivo, Glycine max
Procedure, shortened: as §1

galium = assay type: in vivo, Galium aparine
Procedure, shortened: as §1

nutsedge, yellow = assay type: in vivo, Cyperus esculentus
Procedure, shortened: as §1

ryegrass, Italian = assay type: in vivo, Lolium multiflorum
Procedure, shortened: as §1

johnsongrass = assay type: in vivo, Sorghum halepense
Procedure, shortened: as §1

oat, wild = assay type: in vivo, Avena fatua
Procedure, shortened: as §1

foxtail, giant = assay type: in vivo, Setaria faberii
Procedure, shortened: as §1

[1] = Postemergence, 31 g ai/ha, visually evaluated after 13 to 15 days
[2] = postemergence, 62 g ai/ha, scale 0 to 100
[3] = postemergence, 250 g ai/ha, scale 0 to 100 (0 no effect, 100 complete control)
[4] = postemergence, 125 g ai/ha, scale 0 to 100, 0 no effect, 100 complete control

CCOc1cc(C(=O)NC2CC2)nn1Cc1ccnc(OC(F)F)c1 [Compound 133]
Plant response rating (scale of 0 to 100 where 0 is no effect and 100 is complete control), Kochia (kochia; [1]): 85 | Kochia plant response rating (kochia; [2]): 90 | Plant response rating, Kochia (kochia; [3]): 90 | Plant response rating, Kochia (kochia; [4]): 90 | Plant response rating (scale of 0 to 100 where 0 is no effect and 100 is complete control), Crabgrass, Large (crabgrass, large; [1]): 5 | Crabgrass, Large plant response rating (crabgrass, large; [2]): 5 | Plant response rating, Crabgrass, Large (crabgrass, large; [3]): 35 | Plant response rating, Crabgrass, Large (crabgrass, large; [4]): 10 | Plant response rating (scale of 0 to 100 where 0 is no effect and 100 is complete control), Chickweed (chickweed; [1]): 50 | Chickweed plant response rating (chickweed; [2]): 60 | Plant response rating, Chickweed (chickweed; [3]): 85 | Plant response rating, Chickweed (chickweed; [4]): 70 | Plant response rating (scale of 0 to 100 where 0 is no effect and 100 is complete control), Morningglory (morningglory; [1]): 75 | Morningglory plant response rating (morningglory; [2]): 90 | Plant response rating, Morningglory (morningglory; [3]): 100 | Plant response rating, Morningglory (morningglory; [4]): 90 | Plant response rating (scale of 0 to 100 where 0 is no effect and 100 is complete control), Oilseed Rape (oilseed rape; [1]): 50 | Oilseed Rape plant response rating (oilseed rape; [2]): 60 | Plant response rating, Oilseed Rape (oilseed rape; [3]): 85 | Plant response rating, Oilseed Rape (oilseed rape; [4]): 75 | Plant response rating (scale of 0 to 100 where 0 is no effect and 100 is complete control), Velvetleaf (velvetleaf; [1]): 25 | Velvetleaf plant response rating (velvetleaf; [2]): 45 | Plant response rating, Velvetleaf (velvetleaf; [3]): 70 | Plant response rating, Velvetleaf (velvetleaf; [4]): 35 | Plant response rating (scale of 0 to 100 where 0 is no effect and 100 is complete control), Waterhemp (waterhemp; [1]): 60 | Waterhemp plant response rating (waterhemp; [2]): 60 | Plant response rating, Waterhemp (waterhemp; [3]): 95 | Plant response rating, Waterhemp (waterhemp; [4]): 75 | Plant response rating (scale of 0 to 100 where 0 is no effect and 100 is complete control), Pigweed (pigweed; [1]): 50 | Pigweed plant response rating (pigweed; [2]): 60 | Plant response rating, Pigweed (pigweed; [3]): 90 | Plant response rating, Pigweed (pigweed; [4]): 80 | Plant response rating (scale of 0 to 100 where 0 is no effect and 100 is complete control), Blackgrass (blackgrass; [1]): 5 | Blackgrass plant response rating (blackgrass; [2]): 5 | Plant response rating, Blackgrass (blackgrass; [3]): 10 | Plant response rating, Blackgrass (blackgrass; [4]): 10 | Plant response rating (scale of 0 to 100 where 0 is no effect and 100 is complete control), Corn (corn; [1]): 10 | Corn plant response rating (corn; [2]): 10 | Plant response rating, Corn (corn; [3]): 35 | Plant response rating, Corn (corn; [4]): 10 | Plant response rating (scale of 0 to 100 where 0 is no effect and 100 is complete control), Ragweed (ragweed; [1]): 25 | Ragweed plant response rating (ragweed; [2]): 25 | Plant response rating, Ragweed (ragweed; [3]): 85 | Plant response rating, Ragweed (ragweed; [4]): 75 | Plant response rating (scale of 0 to 100 where 0 is no effect and 100 is complete control), Soybean (soybean; [1]): 85 | Soybean plant response rating (soybean; [2]): 75 | Plant response rating, Soybean (soybean; [3]): 95 | Plant response rating, Soybean (soybean; [4]): 95 | Plant response rating (scale of 0 to 100 where 0 is no effect and 100 is complete control), Galium (galium; [1]): 70 | Galium plant response rating (galium; [2]): 70 | Plant response rating, Galium (galium; [3]): 80 | Plant response rating, Galium (galium; [4]): 70 | Plant response rating (scale of 0 to 100 where 0 is no effect and 100 is complete control), Nutsedge, Yellow (nutsedge, yellow; [1]): 5 | Nutsedge, Yellow plant response rating (nutsedge, yellow; [2]): 5 | Plant response rating, Nutsedge, Yellow (nutsedge, yellow; [3]): 15 | Plant response rating, Nutsedge, Yellow (nutsedge, yellow; [4]): 5 | Plant response rating (scale of 0 to 100 where 0 is no effect and 100 is complete control), Ryegrass, Italian (ryegrass, Italian; [1]): 5 | Ryegrass, Italian plant response rating (ryegrass, Italian; [2]): 5 | Plant response rating, Ryegrass, Italian (ryegrass, Italian; [3]): 10 | Plant response rating, Ryegrass, Italian (ryegrass, Italian; [4]): 5 | Plant response rating (scale of 0 to 100 where 0 is no effect and 100 is complete control), Johnsongrass (johnsongrass; [1]): 5 | Johnsongrass plant response rating (johnsongrass; [2]): 5 | Plant response rating, Johnsongrass (johnsongrass; [3]): 5 | Plant response rating, Johnsongrass (johnsongrass; [4]): 5 | Plant response rating (scale of 0 to 100 where 0 is no effect and 100 is complete control), Oat, Wild (oat, wild; [1]): 5 | Oat, Wild plant response rating (oat, wild; [2]): 5 | Plant response rating, Oat, Wild (oat, wild; [3]): 35 | Plant response rating, Oat, Wild (oat, wild; [4]): 15 | Plant response rating (scale of 0 to 100 where 0 is no effect and 100 is complete control), Foxtail, Giant (foxtail, giant; [1]): 35 | Foxtail, Giant plant response rating (foxtail, giant; [2]): 40 | Plant response rating, Foxtail, Giant (foxtail, giant; [3]): 80 | Plant response rating, Foxtail, Giant (foxtail, giant; [4]): 50
